Experimental data taken from publication PMC5719457, “Pseudomonas aeruginosa zinc uptake in chelating environment is primarily mediated by the metallophore pseudopaline” (Scientific Reports, 2017).

What was measured:
[1] = biological target: T1, PaCntM (Pseudomonas aeruginosa, UniProt A0A0H2ZH12); assay: fluorescence resonance energy transfer titration (Trp to NAD(P)H); type: binding
T1 construct: gene cntM; full length, N-terminal His6 tag (TEV-cleavable, pET-TEV), E. coli BL21

[2] = biological target: T2, PaCntL (Pseudomonas aeruginosa, UniProt A0A0H2ZHV3); assay: TLC with […]-SAM; HILIC/ESI-MS; type: biochemical; conditions: product yNA
T2 construct: gene cntL; full length, C-terminal His6 tag (pET22b+), E. coli BL21
T2 sequence (A0A0H2ZHV3 whole entry): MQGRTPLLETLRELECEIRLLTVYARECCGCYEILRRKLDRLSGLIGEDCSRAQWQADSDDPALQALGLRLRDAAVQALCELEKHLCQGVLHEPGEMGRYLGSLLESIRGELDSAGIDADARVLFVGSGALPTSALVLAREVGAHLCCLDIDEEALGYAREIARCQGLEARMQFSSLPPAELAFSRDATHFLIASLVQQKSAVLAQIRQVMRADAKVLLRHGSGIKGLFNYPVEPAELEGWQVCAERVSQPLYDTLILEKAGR

T1 sequence (A0A0H2ZH12 whole entry): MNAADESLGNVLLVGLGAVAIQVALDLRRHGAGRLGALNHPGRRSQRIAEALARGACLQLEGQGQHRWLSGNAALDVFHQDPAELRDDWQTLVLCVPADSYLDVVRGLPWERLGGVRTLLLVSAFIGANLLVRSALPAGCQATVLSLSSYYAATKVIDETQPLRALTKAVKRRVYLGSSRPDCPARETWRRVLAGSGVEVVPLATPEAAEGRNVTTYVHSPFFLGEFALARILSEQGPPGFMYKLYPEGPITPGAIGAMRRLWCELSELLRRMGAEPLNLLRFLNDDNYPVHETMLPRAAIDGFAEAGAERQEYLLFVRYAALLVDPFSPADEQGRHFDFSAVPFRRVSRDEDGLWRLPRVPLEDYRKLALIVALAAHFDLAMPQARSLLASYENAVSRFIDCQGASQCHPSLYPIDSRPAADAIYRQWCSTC

NC(=O)C1=CN([C@@H]2O[C@H](COP(=O)(O)OP(=O)(O)OC[C@H]3O[C@@H](n4cnc5c(N)ncnc54)[C@H](O)[C@@H]3O)[C@@H](O)[C@H]2O)C=CC1 [NADH]
Kd [1]: 30 µM

C[S+](CC[C@H](N)C(=O)O)C[C@H]1O[C@@H](n2cnc3c(N)ncnc32)[C@H](O)[C@@H]1O (stereo partly drawn) [SAM]
TLC with [14C]-SAM; HILIC/ESI-MS ([2]; co-substrate L-histidine, labelled compound (carboxyl-14C) in TLC): incubation of PaCntL with SAM and L-histidine led to the formation of the yNA

N[C@@H](Cc1cnc[nH]1)C(=O)O [L-histidine]
TLC with [14C]-SAM; HILIC/ESI-MS ([2]; co-substrate SAM): Only the incubation with L-histidine led to a novel band
